Among the data in US5169856A, “Piperidinoalkyl derivatives of carboxylic acid amides” (priority 1988, dated 1992) are IC50 values, retold here.

The term IC50 denotes the concentration at which inhibition is half-maximal.

Where a name gives a salt, the structure may show the parent alone.

For this test, the target named is T1, acetylcholinesterase (Rattus norvegicus, UniProt P37136).
T1 construct: S1 fraction of the cerebral cortex of male Wistar rats, the enzyme source; from tissue; host or cells: S1 fraction of the cerebral cortex of male Wistar rats
T1 sequence (P37136 32-614): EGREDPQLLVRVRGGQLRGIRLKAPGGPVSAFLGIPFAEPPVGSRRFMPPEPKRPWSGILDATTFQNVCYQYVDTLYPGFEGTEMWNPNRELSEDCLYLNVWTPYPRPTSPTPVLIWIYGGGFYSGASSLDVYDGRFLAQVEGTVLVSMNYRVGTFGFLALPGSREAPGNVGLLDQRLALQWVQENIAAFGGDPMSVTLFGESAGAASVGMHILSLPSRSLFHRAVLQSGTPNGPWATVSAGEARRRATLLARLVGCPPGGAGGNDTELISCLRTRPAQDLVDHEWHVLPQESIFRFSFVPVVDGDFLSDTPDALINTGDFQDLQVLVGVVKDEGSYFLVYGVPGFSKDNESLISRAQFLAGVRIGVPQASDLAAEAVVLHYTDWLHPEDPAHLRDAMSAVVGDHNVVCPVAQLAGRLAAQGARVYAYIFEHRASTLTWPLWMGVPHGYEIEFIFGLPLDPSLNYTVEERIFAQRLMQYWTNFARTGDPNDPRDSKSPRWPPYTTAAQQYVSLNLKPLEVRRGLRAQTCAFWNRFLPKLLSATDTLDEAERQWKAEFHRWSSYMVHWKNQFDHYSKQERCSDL
Put plainly: Inhibition of cholinesterase activity, radiometric ([acetyl-3H]-acetylcholine), S1 fraction of rat cerebral cortex. Conditions: 15 min preincubation at room temperature, [acetyl-3H]-acetylcholine final 200 μM, 30 min, read-out: Anti-acetylcholinesterase activity IC50. The format is biochemical, male Wistar rats. The procedure:
Cholinesterase activity was measured radiometrically by the method of Johnson and Russell^1), modified by Kleinberger and Yanal^2), with a slight modification.
S1 fraction of the cerebral cortex of male Wistar rats, the enzyme source, was preincubated in a scintillation vial with drugs for 15 min at room temperature, and then [acetyl-^3 H]-acetylchollne (final 200 μM) was added and incubated further for 30 min. The reaction was terminated by adding solution containing 1 M chloroacetic acid, followed by toluene-based scintillant, and the vials were capped and shaken to transfer the product, [^3 H]-acetic acid, to toluene phase. Then radioactivity in the toluene phase was counted by liquid scintillation spectrometry. Inhibitory activity of the test drug was expressed by 50%-inhibitory concentration (IC50), which was calculated by linear regression of log-probit transformation of the inhibition curve.
Regarding `O=C(/C=C/c1ccccc1)NCCC1CCN(Cc2ccccc2)CC1` [Example 1, (E)-3-Phenyl-N-[2-(1-benzylpiperidin-4-yl)ethyl]-2propenamide.hydrochloride], the IC50 was 9.6 µM.

For `CN(CCC1CCN(Cc2ccccc2)CC1)C(=O)/C=C/c1ccccc1` [Example 2, (E)-3-Phenyl-N-methyl-N-[2-(1-benzylpiperidin-4-yl)ethyl]-2-propenamide.hydrochloride], the IC50 came to 18 µM.

As for `CC(=O)N(CCC1CCN(Cc2ccccc2)CC1)C(=O)/C=C/c1ccccc1` [Example 3, (E)-3-Phenyl-N-acetyl-N-[2-(1-benzylpiperidin-4yl)ethyl]-2-propenamide.hydrochloride], the IC50 was determined as 0.64 µM.

`CC(=Cc1ccccc1)C(=O)NCCC1CCN(Cc2ccccc2)CC1` [Example 4-1]: the IC50 came out at 8.1 µM.

Take `O=C(NCCC1CCN(Cc2ccccc2)CC1)C(=Cc1ccccc1)c1ccccc1` [Example 4-2]: the IC50 was found to be 3.5 µM.

Take `O=C(C=Cc1cccnc1)NCCC1CCN(Cc2ccccc2)CC1` [Example 4-3]: the IC50 worked out at 2 µM.

As for `O=C(C=Cc1ccco1)NCCC1CCN(Cc2ccccc2)CC1` [Example 4-4], the IC50 stood at 9.9 µM.

`O=C(C=Cc1cccs1)NCCC1CCN(Cc2ccccc2)CC1` [Example 4-5]: the IC50 was determined as 13 µM.

Regarding `COc1ccc(C=CC(=O)NCCC2CCN(Cc3ccccc3)CC2)cc1OC` [Example 4-6], the IC50 was found to be 2.6 µM.

Turning to `COc1cc2c(cc1OC)CCC(C(=O)NCCC1CCN(Cc3ccccc3)CC1)=C2` [Example 4-7], the half-inhibitory concentration (IC50) was 1.2 µM.

`O=C(C=Cc1ccc([N+](=O)[O-])cc1)NCCC1CCN(Cc2ccccc2)CC1` [Example 4-8]: the IC50 was found to be 2.8 µM.

For the compound `N#Cc1ccc(C=CC(=O)NCCC2CCN(Cc3ccccc3)CC2)cc1` [Example 4-9], the IC50 is 3.3 µM.

`CS(=O)(=O)c1ccc(C=CC(=O)NCCC2CCN(Cc3ccccc3)CC2)cc1` [Example 4-10]: the half-inhibitory concentration (IC50) was 1.6 µM.

Regarding `Cc1ccc(C=CC(=O)NCCC2CCN(Cc3ccccc3)CC2)cc1` [Example 4-11], the IC50 came out at 15 µM.

In the case of `O=C(C=Cc1ccc(Cl)cc1)NCCC1CCN(Cc2ccccc2)CC1` [Example 4-12], the IC50 was 9.2 µM.
